PMC10046037, “GABRG2 Variants Associated with Febrile Seizures” (Biomolecules, 2023)

Molecular target: T1, α1β3γ2 GABAA receptor, γ2R408K variant (Homo sapiens, UniProt P14867+P18507+P28472, R408K)
T1 construct: expressed in transfected cells; host or cells: HEK293T
T1 sequence (P14867 28-456): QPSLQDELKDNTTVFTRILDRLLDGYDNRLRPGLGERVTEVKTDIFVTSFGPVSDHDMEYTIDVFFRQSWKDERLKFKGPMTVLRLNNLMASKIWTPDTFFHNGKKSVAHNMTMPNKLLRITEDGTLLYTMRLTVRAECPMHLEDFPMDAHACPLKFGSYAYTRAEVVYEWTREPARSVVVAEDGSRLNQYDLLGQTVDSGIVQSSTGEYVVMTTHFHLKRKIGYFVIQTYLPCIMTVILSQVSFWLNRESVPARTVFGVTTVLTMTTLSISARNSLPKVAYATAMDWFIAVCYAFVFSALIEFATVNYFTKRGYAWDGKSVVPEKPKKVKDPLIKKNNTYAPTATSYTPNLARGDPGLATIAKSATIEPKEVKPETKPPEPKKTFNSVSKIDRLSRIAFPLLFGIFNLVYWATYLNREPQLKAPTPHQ
T1 sequence (P28472 26-473 isoform P28472-2): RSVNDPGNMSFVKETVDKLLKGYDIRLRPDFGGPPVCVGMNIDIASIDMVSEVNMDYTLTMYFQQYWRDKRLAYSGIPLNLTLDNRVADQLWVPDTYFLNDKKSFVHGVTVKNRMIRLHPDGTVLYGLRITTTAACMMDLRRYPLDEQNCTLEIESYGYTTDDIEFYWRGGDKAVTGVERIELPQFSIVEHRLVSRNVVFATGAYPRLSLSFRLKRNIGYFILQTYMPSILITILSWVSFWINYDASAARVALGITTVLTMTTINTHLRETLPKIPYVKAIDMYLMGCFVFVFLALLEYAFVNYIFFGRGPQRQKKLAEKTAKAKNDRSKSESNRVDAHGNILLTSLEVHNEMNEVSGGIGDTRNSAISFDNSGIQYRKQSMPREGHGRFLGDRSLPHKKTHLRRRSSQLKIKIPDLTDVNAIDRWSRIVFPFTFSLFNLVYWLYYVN
T1 sequence (P18507 40-475 R408K): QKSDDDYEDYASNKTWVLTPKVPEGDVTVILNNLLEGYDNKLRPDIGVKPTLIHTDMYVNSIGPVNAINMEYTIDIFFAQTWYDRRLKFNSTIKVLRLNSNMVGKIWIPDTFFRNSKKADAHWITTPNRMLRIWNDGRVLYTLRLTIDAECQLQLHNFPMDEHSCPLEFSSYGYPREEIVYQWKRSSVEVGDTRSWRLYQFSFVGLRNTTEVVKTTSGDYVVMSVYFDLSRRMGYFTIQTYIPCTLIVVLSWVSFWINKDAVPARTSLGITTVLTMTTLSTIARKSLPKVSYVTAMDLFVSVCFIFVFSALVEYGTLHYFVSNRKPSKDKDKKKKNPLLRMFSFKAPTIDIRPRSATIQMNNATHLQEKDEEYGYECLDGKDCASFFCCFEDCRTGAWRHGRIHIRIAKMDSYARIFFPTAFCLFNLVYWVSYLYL
Assay: Automated patch clamp of GABA-elicited currents (SyncroPatch 384PE), γ2R408K
Type: cell-based
Conditions: 1 mM GABA for 5 ms, HEK293T, mean
Procedure: The coding sequences of human α1 (GABRA1, NM_000806), β3 (GABRB3, NM_021912), and γ2 (GABRG2, NM_198904.2) GABAAR subunits were subcloned into the pcDNA3.1 expression vectors (Invitrogen, Waltham, MA, USA).
HEK293T cells (ATCC, CRL-11268) were cultured at 37 °C in a humidified 5% CO2 incubator and maintained in Dulbecco’s modified Eagle’s medium (Invitrogen) supplemented with 10% fetal bovine serum (Life Technologies, Carlsbad, CA, USA), and 100 IU/mL of penicillin/streptomycin (Life Technologies). For the expression experiments, 4 × 10^5 cells were transfected using polyethylenimine (PEI) reagent (40 kD, Polysciences, Warrington, PA, USA) at a DNA: to transfection reagent ratio of 1:2.5 and harvested 36 h after transfection. To express WT and variant α1β3γ2 receptors, a total of 3 µg of α1, β3, and γ2 (WT or mutant) subunit cDNAs were transfected at a ratio of 1:1:1 into 60 mm culture dishes. For the mock-transfected condition, an empty pcDNA3.1 vector was added for a final cDNA transfection amount of 3 μg. For the electrophysiology experiments, 2.5 × 10^5 cells were plated in 100 mm culture dishes and transfected after 24 h with 3 μg of cDNA of each α1, β3, γ2 (wild-type or mutant) subunit, using X-tremeGENE HP DNA transfection Reagent (Roche Diagnostics, Basel, Switzerland), following the manufacturer’s protocol. Recordings were obtained forty-eight hours after transfection.
Whole-cell patch clamp recordings were conducted according to the manufacturer’s standard procedure for the SyncroPatch 384 [31]. […] Using PatchControl 384, electrophysiological parameters, such as seal resistance, capacitance, and series resistance, were determined for each well after the application of a test pulse, and subsequently monitored over time. […] The currents were normalized to the maximal response of each well, and the concentration–response curves were calculated from single-point additions. The EC50 values for each variant or wild-type receptor were calculated across multiple wells for each experimental condition.

## NCCCC(=O)O [GABA, γ-aminobutyric acid]
-80 mV
  Deactivation: 165.4 ms
  IMAX (maximal GABA-evoked peak current): 0.22 nA
10–90% rise time
  Rise Time: 40.23 ms
